Measurements taken from US20140378541A1, “Synthetic Epigallocatechin Gallate (EGCG) Analogs” (WAYNE STATE UNIVERSITY, priority 2011, published 2014).
Substitutions are numbered along the chain they refer to. Read-outs that look alike come from different tables or passages of the source. Each block holds one compound with its values, some of them ahead of it.

Columns and labels:
[1] = biological target: T1, purified rabbit 20S proteasome (Oryctolagus cuniculus, UniProt G1T4Q9); experiment: Inhibition of chymotrypsin-like activity of purified 20S proteasome; type: biochemical; conditions: for proteasomal inhibition (in words): purified 20S proteasome, concentration not stated; for inhibition of proteasomal chymotryptic activity (in words): even at a concentration of 50 μM
T1 sequence (G1T4Q9 60-263): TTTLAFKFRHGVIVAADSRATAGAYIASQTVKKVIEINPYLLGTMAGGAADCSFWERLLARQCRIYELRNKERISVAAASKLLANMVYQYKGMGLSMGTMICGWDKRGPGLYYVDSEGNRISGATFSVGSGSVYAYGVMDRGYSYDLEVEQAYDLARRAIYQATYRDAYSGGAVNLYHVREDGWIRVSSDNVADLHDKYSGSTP
Description: Purified 20S proteasome was incubated with compound 5, 7, 16, or 21 (A) or MDA-MB-231 cell extract (5.7 μg) was incubated with compound 6, 8, 17, or 22 (B) at indicated concentrations for 2 hours, followed by measuring the proteasomal chymotrypsin-like activity. EGCG was used as a comparative standard.
Purified rabbit 20S proteasome and fluorogenic substrate Suc-LLVY-AMC for the proteasomal chymotrypsin like (CT-like) activity were obtained from Calbiochem Inc. (San Diego, Calif.). Fetal bovine serum (FBS) was from Tissue Culture Biologicals (Tulare, Calif.). Penicillin and streptomycin were purchased from Invitrogen Co. (Carlsbad, Calif.). RPMI 1640 medium was purchased from Invitrogen Co. (Carlsbad, Calif.). MTT (3-4,5-dimethylthiazol-2-yl-2.5-diphenyl-tetrazolium bromide) was purchased from Sigma-Aldrich.
A purified rabbit 20S proteasome (35 ng) was incubated with 20 μM of substrate Suc-LLVY-AMC in 100 μl assay buffer (20 mM Tris-HCl, pH 7.5), in the presence of EGCG or EGCG analogs at different concentrations or the solvent for 2 h at 37° C., followed by measurement of hydrolysis of the fluorogenic substrates using a Wallac Victor3™ multi-label counter with 355-nm excitation and 460-nm emission wavelengths.

[2] = tested on: Human breast cancer MDA-MB-231 cells; experiment: MTT cell proliferation assay in MDA-MB-231 cells; type: cell-based; conditions: 24 h; for inhibition at 50 µM: Homo sapiens, MDA-MB-231
Description: Human breast cancer MDA-MB-231 cells were treated with 25 or 50 μM EGCG analogs for 24 hours, followed by MTT assay. Pro-EGCG was used as a comparison.
Human breast cancer MDA-MB-231 cells with high COMT activity were treated with 50 μM EGCG analogs for 24 hours in the absence or presence of 10 μM DNC, followed by MTT assay. Pro-EGCG was used as a comparison.
(§1) (A) EGCG analogs 23 and 30 inhibited breast cancer cell proliferation. MDA-MB-231 cells were treated with indicated concentrations of 23, 30 or metformin for 24 h, followed by a MTT assay. *, P<0.1; **, P<0.01. Columns, mean of three experiments; bars, SD. (B) EGCG analogs 23 and 30 activated AMPK at a dose-dependent manner, measured by elevated level of phosphor-AMPKα and its downstream proteins of phosphor-Raptor. […] MDA-MB-231 cells were treated with indicated concentrations of 23 or 30 for 3 h, followed by Western blot analysis with the indicated antibodies. The numbers underneath the Western results of p-AMPKα indicated normalized phosphor-AMPKα/β-actin ratios. […]
(§2) Cells were grown in a 96-well plate. Triplicate wells of cells were treated with indicated concentrations of EGCG or EGCG analogs for 24 h. After aspiration of medium, MTT (1 mg/ml) was then added to the cell cultures, followed by incubation for 3 h at 37° C. After cells were crystallized, MTT was removed and DMSO was added to dissolve the metabolized MTT product. The absorbance was then measured on a Wallac Victor3 1420 Multi-label counter at 540 nm.

AMPK signaling = experiment: AMPK activation, Western blot, MDA-MB-231 cells; type: cell-based, human; conditions: 20 μM, 3 h; metformin 10 mM as comparison
Description: In FIG. 9A, human breast cancer MDA-MB-231 cells were treated with 20 μM of EGCG, Pro-EGCG and EGCG analogs (compounds 5, 7, 23, 30 and 31), or 10 mM of metformin for 3 hrs. Cell lysates were analyzed by Western blot using antibodies of anti-AMPK, p-AMPK, PARP, p-EGFR, EGFR or β-actin. In FIG. 9B, human breast cancer MDA-MB-231 cells were treated with 20 μM of EGCG analogs 23 and 30, 10 nM of docetaxel alone, or combined treatment with compounds 23 and 30 plus docetaxel for 24 hrs. Cell lysates were analyzed by Western blot using antibodies of anti-AMPK, p-AMPK, PARP, p-EGFR, EGFR or β-actin. In FIG. 9C, cells were incubated in medium (0.1% BSA without FBS) containing 20 μM of 23, 30, 2.5 μM of Erlotinib (Eb) alone or the combinations as indicated for 24 hrs. Cell lyses were analyzed by Western blot using antibodies of anti-AMPK, p-AMPK, PARP, p-EGFR, EGFR or β-actin.
as §1
A whole cell extract was prepared from the treated cells as described by Landis-Piwowar et al. Cancer Res. (2007) 67, 4303, Chen et al. Cancer Res. (2007) 67, 1636, and Chen et al. Biochem. Pharm. (2005) 69, 1421. Cell extracts (30 μg) were separated by an SDS-PAGE gel and transferred to nitrocellulose membranes. The membrances were blotted by specific antibodies including anti-AMPK, p-AMPK, EGFR, p-EGFR (Cell Signaling Tech., Danvers, Mass.), PARP (Enzo Life Sciences, Plymouth Meeting, Pa.), actin (Santa Cruz Biotechnology, Santa Cruz, Calif.). The membranes were visualized by enhanced chemiluminescence, as described previously by Landis-Piwowar et al. Cancer Res. (2007) 67, 4303, Chen et al. Cancer Res. (2007) 67, 1636, and Chen et al. Biochem. Pharm. (2005) 69, 1421.
The Western blot analysis was performed as follows: A whole cell extract was prepared from the treated cells as described previously (Landis-Piwowar et al., Cancer research, 2007, 67: 4303-4310; Chen et al., Cancer research, 2007, 67: 1636-1644; Chen et al., Biochemical pharmacology, 2005, 69: 1421-1432). The cell extracts (30 μg) were then separated by an SDS-PAGE gel and transferred to nitrocellulose membranes. The membrances were blotted by specific antibodies including anti-AMPK, p-AMPK, EGFR, p-EGFR (Cell Signaling Tech. Danvers, Mass.), PARP (Enzo Life Sciences, Plymouth Meeting, Pa.), actin (Santa Cruz Biotechnology, Santa Cruz, Calif.). The membranes were visualized by enhanced chemiluminescence, as described previously (Landis-Piwowar et al., Cancer research, 2007, 67: 4303-4310; Chen et al., Cancer research, 2007, 67: 1636-1644; Chen et al., Biochemical pharmacology, 2005, 69: 1421-1432).
In FIG. 9A, human breast cancer MDA-MB-231 cells were treated with 20 μM of EGCG, Pro-EGCG and other EGCG analogs (compounds 5, 7, 23, 30 and 31), or 10 mM of metformin for 3 hrs. Cell lysates were analyzed by Western blot using antibodies of anti-AMPK, p-AMPK, PARP, p-EGFR, EGFR or β-actin. In FIG. 9B, human breast cancer MDA-MB-231 cells were treated with 20 μM of EGCG analogs 23 and 30, 10 nM of docetaxel alone, or combined treatment with compounds 23 and 30 plus docetaxel for 24 hrs.

[3] = biological target: T2, proteasomal chymotrypsin-like activity of MDA-MB-231 cell extracts (Homo sapiens, UniProt P28074); experiment: Proteasomal chymotrypsin-like activity in MDA-MB-231 cell lysate with high COMT activity; type: biochemical; conditions: concentrations ranging between 1-10 μM, 2 h
T2 construct: endogenous in cells; host or cells: MDA-MB-231 human breast cancer cells (ATCC), cell extract
T2 sequence (P28074 60-263): T1 sequence (G1T4Q9 60-263) with D197E
Description: (A) MDA-MB-231 cell extracts (5.7 μg) were incubated with different concentrations of compound 5 or 7 or EGCG for 2 hours, followed by performance of proteasomal chymotrypsin-like activity assay. EGCG was used as a control. (B) MDA-MB-231 cell extracts (5.7 μg) were pre-treated with 10 μM DNC for 20 minutes, followed by co-incubation with compound 5, or 7 or EGCG for 2 h. The proteasomal chymotrypsin-like activity was measured.
Human breast cancer MDA-MB-231 cell lysate that contains high COMT activity were treated with varying concentrations of compound 5 or 7. […] Thus, consistent with previous reports EGCG is also susceptible to methylation by COMT (H., Lu, X. Meng, C. S. Yang, Drug Metabolism and Disposition; 31; 572, 2003).

[4] = tested on: human multiple myeloma ARP cells; experiment: MTT assay in multiple myeloma ARP cells, alone or with Velcade; type: cell-based; conditions: 48 h; for effect on cell proliferation when combined with Velcade: 20 μM plus varying doses of Velcade
Description: The cells were treated with Velcade™ alone or with 20 μM of compounds 5, 7 and 23 or in combination with varying doses of Velcade™ for 48 hrs, followed by a MTT assay.
Human multiple myeloma cells (Arp and Opm1) cells, kindly provided by Dr. Ramesh Batchu (Wayne State University), were grown in RPMI-1640 medium supplemented with 10% FBS, 100 units/ml of penicillin, and 100 μg/ml of streptomycin. Cells were maintained at 37° C. in 5% CO2 (Mujtaba T, et al., Int J Mol Med. (2012) 29(1):102-6).
as §2

[5] = tested on: human multiple myeloma OPM1 cells; experiment: MTT assay in multiple myeloma OPM1 cells, alone or with Velcade; type: cell-based; conditions: 48 h
MDA-MB-231 cells = experiment: Mammosphere formation assay; type: cell-based; conditions: Homo sapiens, MDA-MB-231, 168 h, 7 days
Description: MDA-MB-231 cells were seeded in low attached 6-well plates (1000 cells/well) and treated with indicated concentrations of 23 and 30 for 7 days, followed by calculating numbers of mammosphere (A) and taking photos of mammosphere morphology (B). Metformin and EGCG were served as control. *, P<0.1; **, P<0.01. Columns, mean of three experiments; bars, SD.
Mammosphere formation assay was performed to assess the capacity of cancer stem cell self-renewal. Single cell suspensions of MDA-MB-231 cells were thoroughly suspended and plated on ultra low adherent wells of 6-well plates (Corning, Lowell, Mass.) at 1000 cells/well in 1.5 ml of sphere formation medium (1:1 DMEM/F12 medium supplemented with 50 units/ml penicillin, […] streptomycin, B-27 and N-2). One milliliter of sphere formation medium was added every 3-4 days. After 7 days of incubation with different concentrations of EGCG analogs 23, 30 or metformin, the formed spheres were collected by centrifugation at 300 g for 5 min and counted with an inverted phase-contrast Zeiss Axiovert 25 microscope.

proteasomal inhibition (in words) [1]: none
SMILES: CC(=O)Oc1cc(OC(C)=O)c2c(c1)O[C@H](c1cc(OC(C)=O)c(OC(C)=O)c(OC(C)=O)c1)[C@H](OC(=O)c1cc(OC(C)=O)c(OC(C)=O)c(OC(C)=O)c1)C2 [Compound 4, (−)-Epigallocatechin gallate octa-acetate]
inhibition in MDA-MB-231 cells growth ([2]; 25 to 50 μM, MTT): 0 to 32% | inhibition at 50 µM ([2]; absence of DNC, read-out: inhibition of cell proliferation, compound alone): 42% | inhibition at 50 µM ([2]; plus 10 μM DNC (COMT inhibitor), read-out: inhibition of cell proliferation in the presence of DNC): 89% | AMPK activation (p-AMPK) (AMPK signaling): can activate AMPK signaling

inhibition of proteasomal activity [3]: 10-16%
SMILES: O=C(O[C@H]1Cc2ccccc2C[C@H]1OC(=O)c1cc(O)c(O)c(O)c1)c1cc(O)c(O)c(O)c1 [Compound 5]
effect on cell proliferation when combined with Velcade [4]: antagonized the inhibitory effect

inhibition of proteasomal activity [3]: 18-51%
SMILES: O=C(O[C@H]1Cc2ccccc2C[C@H]1OC(=O)c1cc(O)cc(O)c1)c1cc(O)cc(O)c1 [Compound 7]
effect on cell proliferation when combined with Velcade [4]: synergistic inhibitory effect | inhibition at 20 µM ([4]; Homo sapiens, ARP cells, 20 μM, read-out: inhibition of cell proliferation): ~60%

inhibition of proteasomal chymotryptic activity (in words) [1]: did not inhibit
SMILES: O=C(O[C@H]1Cc2ccccc2C[C@H]1O)c1cc(O)c(O)c(O)c1 [Compound 16]

proteasomal inhibition (in words) [1]: none
SMILES: CC(=O)Oc1cc(C(=O)O[C@H]2Cc3ccccc3C[C@H]2OC(C)=O)cc(OC(C)=O)c1OC(C)=O [Compound 17]

inhibition of proteasomal chymotryptic activity (in words) [1]: not active
SMILES: O=C(O[C@H]1Cc2ccccc2C[C@H]1O)c1cc(O)cc(O)c1 [Compound 21]

proteasomal inhibition (in words) [1]: none
SMILES: CC(=O)Oc1cc(OC(C)=O)cc(C(=O)O[C@H]2Cc3ccccc3C[C@H]2OC(C)=O)c1 [Compound 22]

melting point: 102 to 104 °C
SMILES: O=C(O[C@H]1Cc2ccccc2C[C@H]1OC(=O)c1ccc(F)c(F)c1)c1ccc(F)c(F)c1 [Compound 33]

melting point: 136 to 138 °C
SMILES: O=C(O[C@H]1Cc2ccccc2C[C@H]1OC(=O)c1cc(F)cc(F)c1)c1cc(F)cc(F)c1 [Compound 34]

SMILES: CC(C)C[C@H](NC(=O)[C@H](Cc1ccccc1)NC(=O)c1cnccn1)B(O)O [Velcade™, bortezomib, reference compound]
sensitivity of OPM1 cell line to treatment, versus ARP cells [5]: more resistant | cell proliferation, Velcade alone ([4]; varying doses): reduced cell proliferation in a dose-dependent manner

SMILES: CN(C)C(=N)N=C(N)N [metformin, reference compound]
inhibition at 5000 µM (MDA-MB-231 cells; 5 mM): 41.4% | inhibition at 10000 µM (MDA-MB-231 cells; 10 mM): 67.6%
